Test results published in US20230204587A1, “NOVEL DIAGNOSTIC MARKER FOR PROSTATE CANCER” (URTESTE S.A., priority 2020, published 2023).
Starred links: 1 amine or outer side, 2 acyl side, 3 side chain; linkers in the order of their positions; H or OH if unused. Non-standard residues stand in square brackets, D forms with d. No end group written: not given here. *: point of attachment. Benzoyl(5-NH,2-NO2) = O=C(c1cc(N[*:1])ccc1[N+](=O)[O-])[*:2]; pNA = O=[N+]([O-])c1ccc(N*)cc1; 2Abz = Nc1ccccc1C(=O)O

Key:
[1] = tested on: proteolytic enzymes in urine; assay: RP HPLC analysis of substrate hydrolysis in urine from a person diagnosed with prostate cancer; format: biochemical, human; details: randomly selected urine from a person diagnosed with prostate cancer
Method: A: ABZ-Trp-Glu-Gly-Asn-ANB-NH2 substrate in 200 mM Tris-HCl buffer, pH 8.0. B: Hydrolysis of ABZ-Trp-Glu-Gly-Asn-pNA substrate in urine of patients diagnosed with prostate cancer.

[2] = tested on: proteolytic enzymes in urine; assay: Chromogenic substrate hydrolysis in urine samples (absorbance at 405 nm, 96-well plate); format: biochemical, human; details: for rate of hydrolysis of substrate (increase in absorbance over time): 200 mM Tris-HCl pH 8.0, 37° C., 60 minutes, 405 nm
Method: The study on the application of new compounds was performed on a group of 25 patients diagnosed with prostate cancer. For this purpose, the compound with formula: ABZ-Trp-Glu-Gly-Asn-ANB-NH2 or ABZ-Trp-Glu-Gly-Asn-pNA was dissolved in dimethyl sulfoxide (at a concentration of 0.5 mg/mL); 50 μL of this solution was mixed with 120 μl buffer (200 mM Tris-HCl, pH 8.0) and 80 μL of urine of a person with prostate cancer. The measurement was made in a 96-well plate designed for measuring absorbance, and each sample was analysed in triplicate at 37° C. The duration of the measurement was 60 minutes. During the measurement, the wavelength characteristic of the released chromophore (ANB-NH2 or pNA) was monitored at 405 nm (range 380-430 nm).

Row | rate of hydrolysis of substrate (increase in absorbance over time) ([2]; urine of patients diagnosed with prostate cancer (samples 1-25)) | Substance | hydrolysis products by RP HPLC [1] | rate of hydrolysis of substrate (increase in absorbance over time) ([2]; urine from healthy individuals) | absorbance increase on incubation with urine from various kinds of malignancies ([2]; urine from pancreas, liver, bowel, lung, bile duct, stomach and prostate cancer patients)
1 | all samples 1-25 disintegrated | ABZ-Trp-Glu-Gly-Asn-ANB-NH2 ([2Abz]WEGN-{Benzoyl(5-NH,2-NO2)-NH2}) [Compound 1, chromogenic peptide; ABZ is 2-aminobenzoic acid, ANB-NH2 is amide of 5-amino-2-nitrobenzoic acid] | break down into the ABZ-Trp-Glu-Gly-Asn-OH peptide fragment and chromophore | does not lead to an increase in absorbance | absorbance increase is observed only for urine of patient diagnosed with prostate cancer
2 |  | ABZ-Trp-Glu-Gly-Asn-pNA ([2Abz]WEGN-pNA) [Compound 2, chromogenic peptide; ABZ is 2-aminobenzoic acid, pNA is para-nitroaniline] | break down into the ABZ-Trp-Glu-Gly-Asn-OH peptide fragment and chromophore |  | 
